From patent US6720346B2, “Thiazole benzamide derivatives and pharmaceutical compositions for inhibiting cell proliferation” (Agouron Pharmaceuticals, Inc., priority 2001, dated 2004)
Structures can show the parent of a compound that is named as a salt.

Columns and labels:
[1] = biological target: T1, CDK2/cyclin A (Homo sapiens, UniProt P24941); assay: Inhibition of CDK2/cyclin A retinoblastoma kinase activity (Ki; % inhibition); format: biochemical; settings: for Ki: apparent Ki, CDK2/cyclin A, Rb substrate
T1 construct: made in house; host or cells: CDK2: insect cells (baculovirus); cyclin A: E. coli
Outline: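 Apparent Ki values came from fitting concentration-dependent activity data to competitive (or competitive tight-binding) models, and % inhibition from single 30 nM screens of library compounds. Activity was measured as ³²P/³³P incorporation from 25 μM ATP into an Rb substrate by 10 or 19 nM CDK2/delta cyclin A at 30 °C over 60–75 min, pH 7.4.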

[2] = biological target: T2, human CDK4/cyclin D3 (Homo sapiens, UniProt P11802); assay: Inhibition of CDK4/cyclin D retinoblastoma kinase activity (Ki; % inhibition); format: biochemical; settings: for Ki: apparent Ki, CDK4/cyclin D3, Rb substrate
T2 construct: made in house; host or cells: insect cells co-infected with baculovirus vectors
T2 sequence (P11802 whole entry): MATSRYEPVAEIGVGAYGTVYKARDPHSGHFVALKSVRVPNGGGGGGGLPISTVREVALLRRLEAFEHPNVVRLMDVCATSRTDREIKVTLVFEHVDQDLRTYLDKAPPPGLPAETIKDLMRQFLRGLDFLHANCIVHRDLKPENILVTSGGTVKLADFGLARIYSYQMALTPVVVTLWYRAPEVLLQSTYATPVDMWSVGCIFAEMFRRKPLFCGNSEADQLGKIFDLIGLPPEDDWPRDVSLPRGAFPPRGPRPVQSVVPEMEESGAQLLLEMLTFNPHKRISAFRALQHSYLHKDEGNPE
T2 sequence (P30281 1-264 partner limits assumed): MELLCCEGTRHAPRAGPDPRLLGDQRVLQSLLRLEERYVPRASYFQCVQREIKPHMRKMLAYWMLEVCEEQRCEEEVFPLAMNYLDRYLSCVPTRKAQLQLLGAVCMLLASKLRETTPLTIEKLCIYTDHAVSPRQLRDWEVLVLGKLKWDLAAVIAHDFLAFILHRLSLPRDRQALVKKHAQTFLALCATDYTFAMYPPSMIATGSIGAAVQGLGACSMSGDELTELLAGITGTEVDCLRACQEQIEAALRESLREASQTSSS
Outline: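 Radiometric filter-binding read-out: Rb residues 386-928 phosphorylated by 5 nM CDK4/cyclin D3(1-264) from baculovirus-infected insect cells, 25 μM ATP, HEPES pH 7.4, 30 °C. Run 20 min, or 60 min for tight-binding inhibitors. Screening at 30 nM theoretical compound; apparent Ki by competitive-inhibition fitting.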

[3] = tested on: HCT-116 cell line; assay: Inhibition of cell growth, MTT tetrazolium salt assay; format: cell-based; settings: for IC50: Homo sapiens, HCT-116, 120 h, MTT, three to five days
Outline: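 HCT-116 cells in McCoy's 5A were dosed 4 h after plating with compounds in 0.5% DMSO and grown 3–5 days at 37 °C. Then 0.2 mg/mL MTT was added for 4 h and formazan absorbance read at 540 nm. IC50/IC90 came from semi-log plots against DMSO-only controls.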

[4] = HCT-116 cells, 0.25 μM compound

| CDK2 % Inhibition at 0.03 μM ([1]; 0.03 μM compound) [%] | CDK4 % Inhibition at 0.03 μM ([2]; 0.03 μM compound) [%] | SMILES | HCT-116 % Inhibition at 0.1 μM ([3]; HCT-116 cells, 0.1 μM compound) [%] | HCT-116 % Inhibition at 0.25 μM [3, 4] [%] | further results |
| --- | --- | --- | --- | --- | --- |
| −7 | 9 | Cc1cccc(NC(=O)c2ccc(Nc3nc(N)c(C(=O)c4c(F)cccc4F)s3)cc2)c1 [Example G280] | 7 | 70 | – |
| −2 | 17 | Nc1nc(Nc2ccc(C(=O)NCC(O)CO)cc2)sc1C(=O)c1c(F)cccc1F (stereo not shown) [Example G279] | 2 | 52 | – |
| −24 | 1 | Nc1nc(Nc2ccc(C(=O)N3CCCCC3CCO)cc2)sc1C(=O)c1c(F)cccc1F (stereo not shown) [Example G265] | 21 | 48 | – |
| – | – | C=C(C)CN(C)C(=O)c1ccc(Nc2nc(N)c(C(=O)c3c(F)cccc3F)s2)cc1 [Example G182] | – | – | CDK2 % Inhibition at 0.03 μM ([1]; at 0.03 μM): −2%; CDK4 % Inhibition at 0.03 μM ([2]; at 0.03 μM): 6%; HCT-116 % Inhibition at 0.1 μM ([3]; HCT-116, at 0.1 μM): 23%; HCT-116 % Inhibition at 0.25 μM ([3]; HCT-116, at 0.25 μM): 52% |
| 0 | 7 | Nc1nc(Nc2ccc(C(=O)NCCc3ccc(Cl)cc3)cc2)sc1C(=O)c1c(F)cccc1F [Example G266] | 28 | 30 | – |
| 29 | 31 | Nc1nc(Nc2ccc(C(=O)NCc3cccc(F)c3)cc2)sc1C(=O)c1c(F)cccc1F [Example G252] | 33 | 67 | – |
| – | – | Nc1nc(Nc2ccc(C(=O)N3CCN(C(=O)c4ccco4)CC3)cc2)sc1C(=O)c1c(F)cccc1F [Example G32] | – | – | CDK2 % Inhibition at 0.03 μM ([1]; at 0.03 μM): 8%; CDK4 % Inhibition at 0.03 μM ([2]; at 0.03 μM): 27%; HCT-116 % Inhibition at 0.25 μM ([3]; HCT-116, at 0.25 μM): 55% |
| – | – | Nc1nc(Nc2ccc(C(=O)NCCN3CC=CC3)cc2)sc1C(=O)c1c(F)cccc1F [Example A45, 4-[4-Amino-5-(2,6-difluoro-benzoyl)-thiazol-2-ylamino]-N-[2-(2,5-dihydro-pyrrol-1-yl)-ethyl]-benzamide Dihydrochloride Salt] | – | – | Ki [1]: 48 nM; Ki [2]: 7 nM; IC50 [3]: 86 nM |
| −3 | 12 | CN(Cc1ccco1)C(=O)c1ccc(Nc2nc(N)c(C(=O)c3c(F)cccc3F)s2)cc1 [Example G307] | 8 | 54 | – |
| 10 | 12 | COC(=O)c1ccc(NC(=O)c2ccc(Nc3nc(N)c(C(=O)c4c(F)cccc4F)s3)cc2)cc1OC [Example G220] | 18 | 54 | – |
| – | – | CC(C)[C@H](CN(C)C)NC(=O)c1ccc(Nc2nc(N)c(C(=O)c3c(F)cccc3F)s2)cc1 [Example A47, 4-[4-Amino-5-(2,6-difluoro-benzoyl)-thiazol-2-ylamino]-N-(1R-dimethylaminomethyl-2-methyl-propyl)-benzamide] | – | – | Ki [1]: 55 nM; Ki [2]: 5 nM; IC50 [3]: 580 nM |
| −10 | 13 | Nc1nc(Nc2ccc(C(=O)NCCC3OCCO3)cc2)sc1C(=O)c1c(F)cccc1F [Example G342] | 20 | 55 | – |
| – | – | CN(C)C(C)(C)CNC(=O)c1ccc(Nc2nc(N)c(C(=O)c3c(F)cccc3F)s2)cc1 [Example A12, 4-[4-Amino-5-(2,6-difluoro-benzoyl)-thiazol-2-ylamino]-N-(2-dimethylamino-2-methyl-propyl)-benzamide] | – | – | Ki [1]: 91 nM; Ki [2]: 20 nM; IC50 [3]: 130 nM |
| – | – | CN(C)CCCN(C)C(=O)c1ccc(Nc2nc(N)c(C(=O)c3c(F)cccc3F)s2)cc1 [Example G64] | – | – | CDK2 % Inhibition at 0.03 μM ([1]; at 0.03 μM): 5%; CDK4 % Inhibition at 0.03 μM ([2]; at 0.03 μM): 17%; HCT-116 % Inhibition at 0.25 μM ([3]; HCT-116, at 0.25 μM): 57% |
| – | – | CCN(CC)CCN(CC)C(=O)c1ccc(Nc2nc(N)c(C(=O)c3c(F)cccc3F)s2)cc1 [Example G35] | – | – | CDK2 % Inhibition at 0.03 μM ([1]; at 0.03 μM): 5%; CDK4 % Inhibition at 0.03 μM ([2]; at 0.03 μM): 8%; HCT-116 % Inhibition at 0.25 μM ([3]; HCT-116, at 0.25 μM): 53% |
| – | – | Nc1nc(Nc2ccc(C(=O)NC3CCN(Cc4ccccc4)C3)cc2)sc1C(=O)c1c(F)cccc1F (stereo not shown) [Example G381] | – | – | CDK2 % Inhibition at 0.03 μM ([1]; 0.03 μM compound, 0.03 µM): 5%; CDK4 % Inhibition at 0.03 μM ([2]; 0.03 μM compound, 0.03 µM): 38%; HCT-116 % Inhibition at 0.1 μM ([3]; HCT-116 cells, 0.1 μM compound, 0.1 µM): 43%; HCT-116 % Inhibition at 0.25 μM ([3]; HCT-116 cells, 0.25 μM compound, 0.25 µM): 88% |
